{"source": "paper PMC12096834", "about": "“Antimicrobial peptide plectasin recombinantly produced in Escherichia coli disintegrates cell walls of gram-positive bacteria, as proven by transmission electron and atomic force microscopy” (Journal of Bacteriology, 2025)", "assay_in_all_cases": "Antimicrobial activity assay (broth microdilution MIC)", "format_in_all_cases": "cell-based", "key": {"[1]": {"test_system": "Enterococcus faecalis DSM 2570 (ATCC 29212)", "conditions": "MH broth, approx 5 × 10^4 CFU/well, 35°C, 18 hours, absorbance 625 nm, three independent assays, plectasin 0.5–512 µg/mL, CASPON-plectasin 16–16,384 µg/mL", "text": "(§1) The test panel included four gram-positive and four gram-negative bacterial strains, which were selected based on EUCAST recommendations and are commonly used in quality control for pathogen testing. Specifically, the test panel comprised the following four gram-positive strains: Staphylococcus aureus DSM 2569 (ATCC 29213), Streptococcus pneumoniae DSM 24048 (ATCC 49619), Listeria monocytogenes DSM 20600 (ATCC 15313), and Enterococcus faecalis DSM 2570 (ATCC 29212). The gram-negative strains included the following: Pseudomonas aeruginosa DSM 1117 (ATCC 27853), Escherichia coli DSM 1103 (ATCC 25922), Escherichia coli BL21(DE3) DSM 102052 (ATCC BAA-1025-B2), and Escherichia coli HMS174 DSM 5932 (ATCC 47011). These strains were obtained from the German Collection of Microorganisms and Cell Cultures GmbH (DSMZ, Leibnitz Institute, Braunschweig, Germany). The strains were maintained in cryo-stocks containing 20% glycerol at a temperature of −80°C. When needed, all gram-negative strains were streaked on MH-agar (Oxoid, Hampshire, UK) and all gram-positive strains on TSYE-agar, with the exception of the Listeria monocytogenes strain, for which BHI-agar was used. All strains were incubated overnight at 35°C.\n(§2) The plates were made fresh on the day of the assay by first adding 50 µL of sterile water (for the gram-positive strains) or PBS buffer pH 7.4 (for the gram-negative strains) into the wells of the first to 11th column of a polystyrene 96-well plate (Greiner, 655161, Kremsmünster, Austria). An ampicillin stock solution (6,400 µg/mL) was prepared and diluted in sterile water to obtain a final ampicillin solution of 64 µg/mL. Purified plectasin, 100 µL of ampicillin solution, CASPON-plectasin, and sterile water for the negative control were each dispensed into two wells of the 12th microtiter plate column and diluted twofold from the 11th to the second column by transferring 50 µL per well of the previous column into the next one (in the end, 50 µL of the 2nd was discarded) to obtain the ranges of 0.064–64 µg/mL for ampicillin, 32–32,768 µg/mL for CASPON-plectasin, and 0.5–512 µg/mL (Streptococcus pneumoniae and Staphylococcus aureus), 1–1,024 µg/mL (Enterococcus faecalis and Listeria monocytogenes), or 4–4,096 µg/mL (gram-negative strains) for plectasin.\n(§3) Bacterial inocula were prepared by suspending colonies from incubated plates described above with 3 mL 0.85% NaCl solution to obtain a turbidity corresponding to McFarland standard 0.5. The inoculated saline suspensions (1–2 × 10^8 CFU/mL) were diluted 1:100 in double concentrated MH- (all gram-negative strains, Staphylococcus aureus, and […]) or MHF- (Streptococcus pneumoniae, Listeria monocytogenes; MH-broth with 5% lysed horse blood and 20 mg/L ß-NAD) broth to obtain approximately […]. Fifty microliters of the diluted inoculum was added to the wells of the prepared microdilution plate, resulting in the final plectasin (0.25–256 µg/mL, 0.5–512 µg/mL, and 2–2,048 µg/mL), CASPON-plectasin (16–16,384 µg/mL), and ampicillin (0.032–32 µg/mL) concentrations and approximately […]. The wells of the negative control were inoculated with sterile double-concentrated MH- or MH-F broth. A schematic illustration of the plate preparation can be found in the supplementary material (Fig. S1). Plates were incubated in ambient air at 35°C for 18 hours. After incubation, the plates were shaken for 1 minute (1,000 rpm) on a platform shaker (Titramax 101, Heidolph, Schwabach, Germany) until obtaining a homogeneous suspension. The absorbances (625 nm) of each well were measured on a Tecan Spark device (Männedorf, Switzerland) and subtracted by the average absorbance of the negative control. […] The variability of the MIC results was evaluated by testing all strains against each agent in three independent assays. […]"}, "[2]": {"test_system": "Escherichia coli BL21(DE3) DSM 102052 (ATCC BAA-1025-B2)", "text": "as §1, §2, §3"}, "[3]": {"test_system": "Listeria monocytogenes DSM 20600 (ATCC 15313)", "conditions": "MHF broth, approx 5 × 10^4 CFU/well, 35°C, 18 hours, absorbance 625 nm, three independent assays, plectasin 0.5–512 µg/mL, CASPON-plectasin 16–16,384 µg/mL", "text": "as §1, §2, §3"}, "[4]": {"test_system": "Streptococcus pneumoniae DSM 24048 (ATCC 49619)", "conditions": "18 hours", "text": "as §1, §2, §3"}, "[5]": {"test_system": "Escherichia coli DSM 1103 (ATCC 25922)", "conditions": "MH broth, 35°C, 18 hours, absorbance 625 nm, three independent tests, plectasin 2–2,048 µg/mL, CASPON-plectasin 16–16,384 µg/mL", "text": "as §1, §2, §3"}, "[6]": {"test_system": "Pseudomonas aeruginosa DSM 1117 (ATCC 27853)", "conditions": "MH broth, 35°C, 18 hours, absorbance 625 nm, three independent tests, plectasin 2–2,048 µg/mL, CASPON-plectasin 16–16,384 µg/mL", "text": "as §1, §2, §3"}, "[7]": {"test_system": "Escherichia coli HMS174 DSM 5932 (ATCC 47011)", "conditions": "MH broth, 35°C, 18 hours, absorbance 625 nm, three independent tests, plectasin 2–2,048 µg/mL, CASPON-plectasin 16–16,384 µg/mL", "text": "as §1, §2, §3"}, "[8]": {"test_system": "Staphylococcus aureus DSM 2569 (ATCC 29213)", "conditions": "18 hours", "text": "as §1, §2, §3"}, "[9]": {"conditions": "microdilution, extinction at 625 nm, Fig. 3"}}}
{"smiles": "CC[C@H](C)[C@@H]1NC(=O)[C@H](CO)NC(=O)[C@H](CCCCN)NC(=O)[C@@H]2CSSC[C@@H](C(=O)N[C@@H](Cc3ccc(O)cc3)C(=O)O)NC(=O)[C@H](CCCCN)NC(=O)[C@@H]3CSSC[C@H](NC(=O)[C@H](CCC(N)=O)NC(=O)[C@H](CCSC)NC(=O)[C@H](CC(=O)O)NC(=O)[C@H](CC(=O)O)NC(=O)[C@H](CCC(=O)O)NC(=O)[C@H](CC(=O)O)NC(=O)[C@H](Cc4c[nH]c5ccccc45)NC(=O)[C@@H]4CCCN4C(=O)CNC(=O)[C@H](CC(N)=O)NC(=O)[C@@H](NC(=O)CNC(=O)[C@H](Cc4ccccc4)NC(=O)CN)CSSC[C@H](NC(=O)[C@H](Cc4ccc(O)cc4)NC(=O)CNC(=O)CNC(=O)[C@H](CCCCN)NC(=O)[C@H](Cc4ccc(O)cc4)NC(=O)CNC(=O)[C@H](CCCCN)NC1=O)C(=O)N[C@@H](C)C(=O)N[C@@H](CCCCN)C(=O)NCC(=O)NCC(=O)N[C@@H](Cc1ccccc1)C(=O)N[C@@H](C(C)C)C(=O)N3)C(=O)N[C@@H](Cc1c[nH]cn1)C(=O)N[C@@H](CC(N)=O)C(=O)N[C@@H](Cc1c[nH]cn1)C(=O)N2", "note": "[Plectasin, plectasin]", "values": [{"measurement": "MIC", "setting": "[1]", "result": 128, "unit": "µg/mL"}, {"measurement": "growth inhibition (no MIC could be determined)", "setting": "[2]; broth microdilution, MH broth, 35°C, 18 hours, absorbance 625 nm, three independent tests, plectasin 2–2,048 µg/mL, CASPON-plectasin 16–16,384 µg/mL", "result": "no growth decline"}, {"measurement": "extinction value at 625 nm (growth) at the highest plectasin concentration", "setting": "[2]; increased number and altered morphology of cells (Fig. S11)", "result": "four times higher"}, {"measurement": "MIC", "setting": "[3]", "result": 32, "unit": "µg/mL"}, {"measurement": "MIC", "setting": "[4]; broth microdilution, MHF broth (5% lysed horse blood, 20 mg/L ß-NAD), approx 5 × 10^4 CFU/well, 35°C, absorbance 625 nm, three independent assays, plectasin 0.25–256 µg/mL, CASPON-plectasin 16–16,384 µg/mL", "result": 4, "unit": "µg/mL"}, {"measurement": "plectasin concentration at which a distinct gradient of extinction reduction was observed", "setting": "[4]; [9]", "result": 0.5, "unit": "µg/mL"}, {"measurement": "growth inhibition (no MIC could be determined)", "setting": "[5]", "result": "no growth decline"}, {"measurement": "growth inhibition (no MIC could be determined)", "setting": "[6]", "result": "no growth decline"}, {"measurement": "growth inhibition (no MIC could be determined)", "setting": "[7]", "result": "no growth decline"}, {"measurement": "MIC", "setting": "[8]; broth microdilution, MH broth, approx 5 × 10^4 CFU/well, 35°C, absorbance 625 nm, three independent assays, plectasin 0.25–256 µg/mL, CASPON-plectasin 16–16,384 µg/mL", "result": 32, "unit": "µg/mL"}, {"measurement": "plectasin concentration at which a distinct gradient of extinction reduction was observed", "setting": "[8]; [9]", "result": 8, "unit": "µg/mL"}]}
